Measurements published in US12084479B2, “Modified antimicrobial peptide derived from an arginine-rich domain” (priority 2016, dated 2024).
Like-named read-outs stand apart in the source and are kept apart here. Where a SMILES comes first, the peptide text is derived from it. Where no end group is shown, it is not given here. [ ]: non-standard residue; d: D form.

Legend:
[1] = In vivo toxicity (survival, serum ALT); design: species or system ICR mice; conditions: for serum ALT level compared with polymyxin B: day 1
Protocol: FIG. 7 is a set of graphs showing lower in vivo toxicity of HBcARD peptide D-150-177C in comparison with polymyxin B. At day 0, male ICR mice (5 mice/group) were ip. injected with different doses of D-150-177C peptide (20-80 mg/kg) and polymyxin B (50 mg/kg), respectively. (A) The survival rates of all groups were monitored for 7 days. (B) Serum samples collected from mice treated with D-150-177C and polymyxin B were determined for alanine aminotransferase activity (ALT) at day 1. The dash line represents the mean of ALT value (45 U/L) of ICR mice (Charles River Laboratories).
Using the sepsis mouse model, we examined the survival rates of ICR mice intraperitoneally (i.p.) injected with the 28-mer D-150-177C peptide (20-80 mg/kg body weight) and polymyxin B (a colistin-related compound) (50 mg/kg body weight). […] See FIG. 7, A. When the doses were increased to 60 and 80 mg/kg, survival rates of mice were decreased to 80% and 40%, respectively. See, FIG. 7, A. Liver injury can be detected by the serum ALT level.

[2] = tested on: K. pneumoniae; assay type: cell-based, Klebsiella pneumoniae
Protocol: (§1) The antimicrobial activities of HBcARD peptides were tested using a number of bacterial strains, including Pseudomonas aeruginosa Migula strains (ATCC 27853, ampicillin-resistant and ATCC 9027, ampicillin-resistant), Klebsiella pneumoniae strain (ATCC 13884), Shigella dysenteriae Xen27 (Caliper Co.), Escherichia coli strain (ATCC 25922), Staphylococcus aureus subsp. strains (ATCC 25923, methicillin-resistantATCC 29213, methicillin-resistant and ATCC 19636, methicillin-resistant) and Acinetobacter baumannii strains (ATCC 17978, ATCC 17978 CR, ATCC19606, ATCC 19606 CR, TCGH 45530 and TCGH 46709). Clinical isolates TCGH 45530 and TCGH 46709 were obtained from Tzu-Chi Buddhist General Hospital (TCGH) in Taiwan, and were identified using the Vitek system (Biomerieux Vitek, Inc., Hazelwood, MO, USA). See Chang et al. (2012), J Microbiol Immunol Infect 45:37-42 doi:10.1016/j.jmii.2011.09.019.
(§2) L- and D-HBcARD peptides were purchased from Yao-Hong Biotechnology Inc. (Taipei, Taiwan). Antimicrobial activity was determined as described. See, Chen et al., 2013. Briefly, bacteria were grown in MH broth (Difco) to mid-logarithmic phase at 37° C., and were diluted to 10^6 CFU (colony formation unit)/ml in phosphate buffer (10 mM sodium phosphate and 50 mM sodium chloride, pH 7.2). Peptides were serially diluted in the same buffer. Fifty microliters (μl) of bacteria were mixed with fifty μl of peptides at varying concentrations, followed by incubation at 37° C. for 3 hours without shaking. At the end of incubation, bacteria were placed on Mueller-Hinton broth agar plates, and allowed to grow at 37° C. overnight for measurement of minimal bactericidal concentration (MBC).
(§3) All peptides were tested in triplicate.

[3] = tested on: P. aeruginosa; assay type: cell-based, Pseudomonas aeruginosa
Protocol: as §1, §2, §3

[4] = tested on: A. baumannii; assay type: cell-based, Acinetobacter baumannii
Protocol: as §1, §2, §3

[5] = tested on: S. aureus; assay type: cell-based, Staphylococcus aureus
Protocol: as §1, §2, §3

[6] = tested on: S. aureus ATCC 19636; experiment: Mouse sepsis model infected with S. aureus, in vivo protection efficacy; design: species or system ICR mice; conditions: for survival (mice protected from death): S. aureus 4×10^6 CFU/mouse i.p., monitored 7 days; for in vivo protection efficacy, compared between peptides: mouse sepsis model, FIG. 8 (5 mg/kg) and FIG. 9 (different doses)
Protocol: To investigate the in vivo protection efficacy of the 37-mer L- and D-HBcARD peptides, we performed a mouse sepsis model infected with S. aureus. ICR mice were first i.p. inoculated with S. aureus (4×10^6 CFU/mouse), followed by one single i.p. injection of L-HBcARD, D-HBcARD and PBS at two hours post-inoculation, respectively. All mice (n=10) administered with PBS died at day 1. See FIG. 4, A. At 7 days post-inoculation, 40% of mice treated with L-HBcARD (10 mg/kg) survived. See FIG. 4, A. In contrast, D-HBcARD peptide was able to achieve a much higher survival rate (60% for 5 mg/kg dose, and 100% for 10 mg/kg dose).
We compared the in vivo protection efficacy of HBcARD 150-177C peptides (28-mer) containing either D-form or L-form arginines. ICR mice (n=10/group) were ip. inoculated with S. aureus ATCC19636 (4×10^6/mouse), followed by treatment with modified peptides at two hours post-inoculation. All PBS control mice died on day 1, and only 20% of the mice treated with control peptide (150-177Q) survived. Administration of L-150-177C peptide at the dose of 5 and 10 mg/kg protected 30% and 70% mice from death, respectively. When treated with 5 mg/kg of D-150-177C, all mice (100%) survived.
Three-week old male ICR mice (19 to 21 g) were purchased from BioLASCO (Taiwan). To test the in vivo protection efficacy of the HBcARD peptides, all mice were inoculated intraperitoneally with S. aureus ATCC 19636 (4×10^6 CFU/mouse). HBc147-183 (L- or D-HBcARD) or the PBS control was administered intraperitoneally at 2 hours after bacterial inoculation, respectively. Each group contained 10 mice. Mortality was monitored daily for 7 days following the bacterial inoculation.

[7] = tested on: E. coli; assay type: cell-based, Escherichia coli; conditions: for Minimal bactericidal concentration: E. coli ATCC 25922
Protocol: as §1, §2, §3

[8] = 5 mg/kg single i.p. injection 2 hours post-inoculation

In the case of `C[C@@H](O)[C@H](NC(=O)[C@@H](CCCNC(=N)N)NC(=O)[C@@H](CCCNC(=N)N)NC(=O)[C@@H](CCCNC(=N)N)NC(=O)[C@@H]1CCCN1C(=O)[C@H](CO)NC(=O)[C@@H](CCCNC(=N)N)NC(=O)CNC(=O)[C@@H](CCCNC(=N)N)NC(=O)[C@@H](CCCNC(=N)N)NC(=O)[C@H](N)CCCNC(=N)N)C(=O)N1CCC[C@H]1C(=O)N[C@@H](CO)C(=O)N1CCC[C@H]1C(=O)N[C@H](CCCNC(=N)N)C(=O)N[C@H](CCCNC(=N)N)C(=O)N[C@H](CCCNC(=N)N)C(=O)N[C@H](CCCNC(=N)N)C(=O)N[C@@H](CO)C(=O)N[C@@H](CCC(N)=O)C(=O)N[C@@H](CO)C(=O)N1CCC[C@H]1C(=O)N[C@H](CCCNC(=N)N)C(=O)N[C@H](CCCNC(=N)N)C(=O)N[C@H](CCCNC(=N)N)C(=O)N[C@H](CCCNC(=N)N)C(=O)N[C@@H](CO)C(=O)N[C@@H](CS)C(=O)O` [D-150-177C, rrrGrSPrrrTPSPrrrrSQSPrrrrSC] (H-[dR][dR][dR]G[dR]SP[dR][dR][dR]TPSP[dR][dR][dR][dR]SQSP[dR][dR][dR][dR]SC-OH; N-terminus and C-terminus assumed), the survival rate ([1]; 60 mg/kg i.p., monitored 7 days) is reported as 80%, the “serum ALT level compared with polymyxin B” value ([1]; 60 mg/kg, p<0.01) is reported as “significantly higher” and the survival rate ([1]; 80 mg/kg i.p., monitored 7 days) is reported as 40%. For the same molecule, the acute toxicity ([1]; 20 and 40 mg/kg i.p., monitored 7 days) was “no acute toxicity” and the “serum ALT level compared with polymyxin B” value ([1]; 20 to 40 mg/kg, p value insignificant) was “higher ALT level than polymyxin B”.

For “RKPRGLEPRRRKVKTTVVYGRRRSKSRERRAPTPQR [Duck HBcARD]”, the Minimal bactericidal concentration [2] was over 70.6 mg/L, the Minimal bactericidal concentration [3] was over 70.6 mg/L and the Minimal bactericidal concentration [4] was 70.6 mg/L.

For “RKPRGLEPRRRKVKTTVVYGRRRSKSRGRRSSPSQR [Heron HBcARD]”, the Minimal bactericidal concentration [2] was over 69.3 mg/L, the Minimal bactericidal concentration [3] was over 69.3 mg/L and the Minimal bactericidal concentration [4] was 69.3 mg/L.

For RRRGRSPRRRTPSPRRRRC [150-168C], the MBC ([5]; S. aureus ATCC19636) was “none of these peptides showed detectable activity”.

With RRRGRSPRRRTPSPRRRRSQSPRRRRSC [150-177C] the “survival (mice protected from death)” value [6, 8] was 30%, the “survival (mice protected from death)” value ([6]; 10 mg/kg single i.p. injection 2 hours post-inoculation) was 70% and the MBC [5] was 2 µM. The MBC ([5]; S. aureus ATCC19636, listed as HBcARD 150-177C) was “rescued the bactericidal activity”, the MBC [7] was 2 µM and the MBC [3] was 2 µM.

For RRRGRSPRRRTPSPRRRRSQSPRRRRSQ [150-177Q], the survival ([6]; control peptide, dose not given, treatment 2 hours post-inoculation) was 20% and the MBC ([5]; S. aureus ATCC19636, listed as HBcARD 150-177Q) was “no detectable bactericidal activity”.

With RRRRSQSPRRRRSC [164-177C] the MBC ([5]; S. aureus ATCC19636) was “none of these peptides showed detectable activity”.

For RRRTPSPRRRRSQSPRRRRC [157-176C], the MBC ([5]; S. aureus ATCC19636) was “none of these peptides showed detectable activity”.

For “RrRGRSPRrRTPSPRrRrSQSPRrRrSC (R[dR]RGRSPR[dR]RTPSPR[dR]R[dR]SQSPR[dR]R[dR]SC) [LD-150-177C]”, the “survival (mice protected from death)” value [6, 8] was 80% and the “in vivo protection efficacy, compared between peptides” value [6] was “less than DL-150-177C”.

Work on “TIVRRRGGSRATRSPRRRTPSPRRRRSQSPRRRRSQSPASSNC [Bat HBcARD]” yielded a Minimal bactericidal concentration ([5]; S. aureus ATCC19636) of 20 mg/L, a Minimal bactericidal concentration [7] of 20 mg/L and a Minimal bactericidal concentration ([2]; K. pneumoniae ATCC 13884) of 5 mg/L. It also gave a Minimal bactericidal concentration ([3]; P. aeruginosa ATCC 9027) of 10 mg/L and a Minimal bactericidal concentration ([4]; A. baumannii ATCC 17978) of 2.5 mg/L.

In the case of “TVIRRRGGARASRSPRRRTPSPRRRRSQSPRRRRSQSPSANC [Woodchuck HBcARD]”, the Minimal bactericidal concentration ([5]; S. aureus ATCC19636) is reported as 19.6 mg/L, the Minimal bactericidal concentration [7] is reported as 19.6 mg/L and the Minimal bactericidal concentration ([2]; K. pneumoniae ATCC 13884) is reported as 9.8 mg/L. For the same molecule, the Minimal bactericidal concentration ([3]; P. aeruginosa ATCC 9027) was 9.8 mg/L and the Minimal bactericidal concentration ([4]; A. baumannii ATCC 17978) was 4.9 mg/L.

For polymyxin B [reference compound], the “survival outcome after i.p. injection” value ([1]; 50 mg/kg body weight i.p.) was “died at day one”.

For “rRrGRPrRrPPrRrRQPrRrRC ([dR]R[dR]GRP[dR]R[dR]PP[dR]R[dR]RQP[dR]R[dR]RC) [DL-dST-150-177C]”, the “in vivo protection efficacy, compared between peptides” value [6] was “remarkably improved protection efficacy compared to the 28-mers DL-150-177C and L-150-177C”.

With “rRrGRSPrRrTPSPrRrRSQSPrRrRSC ([dR]R[dR]GRSP[dR]R[dR]TPSP[dR]R[dR]RSQSP[dR]R[dR]RSC) [DL-150-177C]” the “survival (mice protected from death)” value [6, 8] was “protected all S. aureus-infected mice from death” and the “in vivo protection efficacy, compared between peptides” value [6] was “very similar protection efficacy to all-D-arginine substituted peptide D-150-177C”.
